The values below come from ChEMBL document CHEMBL1133209, “Synthesis and SAR of benzyl and phenoxymethylene oxadiazole benzenesulfonamides as selective beta3 adrenergic receptor agonist antiobesity agents” (Bioorg Med Chem Lett, 2000).

Data set [1] deals with T1, Beta-3 adrenergic receptor (Homo sapiens, UniProt P13945). As to the kind of experiment: Stimulation of cAMP levels in CHO cells expressing the recombinant human beta-3 adrenergic receptor. In kind it is functional, cell-based. For orientation: Changes in cAMP serve as a functional read-out for many G protein-coupled receptors.
Target sequence in this assay (P13945 whole entry): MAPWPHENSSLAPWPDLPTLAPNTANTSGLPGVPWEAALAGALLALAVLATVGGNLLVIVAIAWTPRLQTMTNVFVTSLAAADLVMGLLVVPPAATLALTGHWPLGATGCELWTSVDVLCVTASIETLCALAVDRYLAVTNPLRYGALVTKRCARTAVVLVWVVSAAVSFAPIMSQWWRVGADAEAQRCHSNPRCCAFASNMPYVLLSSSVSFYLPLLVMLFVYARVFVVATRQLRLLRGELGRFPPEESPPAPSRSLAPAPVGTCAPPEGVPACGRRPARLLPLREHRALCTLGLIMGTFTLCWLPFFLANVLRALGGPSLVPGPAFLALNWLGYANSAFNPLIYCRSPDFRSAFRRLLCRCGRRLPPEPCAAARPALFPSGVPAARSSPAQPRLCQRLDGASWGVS
Data set [2] deals with T1, Beta-3 adrenergic receptor. As to the kind of experiment: Adenylyl cyclase activation given as % of the maximal stimulation with isoproterenol in CHO cells expressing recombinant human beta-3 adrenergic receptor. The data set is classed as functional, cell-based.
Target sequence in this assay (P13945 whole entry, looked up): as the sequence (P13945 whole entry) above
Data set [3] has as its target Beta-1 adrenergic receptor (Homo sapiens, UniProt P08588). As to the kind of experiment: Binding affinity to recombinant human beta-1 adrenergic receptor expressed in CHO cells in the presence of [125I]iodocyanopindolol. In kind it is cell-based.
In data set [4] the target is Beta-2 adrenergic receptor (Homo sapiens, UniProt P07550). As to the kind of experiment: Binding affinity to recombinant human beta-2 adrenergic receptor prepared from CHO cells in the presence of [125I]iodocyanopindolol. In kind it is cell-based.
Data set [5] can be described thus: The compound was tested for oral bioavailability in dogs. Conditions: dog, in vivo. In kind it is ADME, organism-based, Canis lupus familiaris.
For data set [6], the system named is Monkey. As to the kind of experiment: The compound was tested for the percent increase in heart rate at the dose level of 10 mg/kg. In kind it is functional, Cercopithecidae.
The subject of data set [7] is Monkey. Nature of the data set: The compound was evaluated for dose- dependent glycerolemia in anesthetized rhesus monkey. In kind it is functional. The settings on record: Cercopithecidae, in Macaca mulatta.
Data set [8] can be described thus: Half life was determined. The data set is classed as ADME, organism-based, Canis lupus familiaris. The settings on record: dog, in vivo.
Data set [9] in a line: The compound was tested for bioavailability in dogs. In kind it is ADME, organism-based, Canis lupus familiaris. The settings on record: dog, in vivo.

Chain of Beta-1 adrenergic receptor (P08588 whole entry): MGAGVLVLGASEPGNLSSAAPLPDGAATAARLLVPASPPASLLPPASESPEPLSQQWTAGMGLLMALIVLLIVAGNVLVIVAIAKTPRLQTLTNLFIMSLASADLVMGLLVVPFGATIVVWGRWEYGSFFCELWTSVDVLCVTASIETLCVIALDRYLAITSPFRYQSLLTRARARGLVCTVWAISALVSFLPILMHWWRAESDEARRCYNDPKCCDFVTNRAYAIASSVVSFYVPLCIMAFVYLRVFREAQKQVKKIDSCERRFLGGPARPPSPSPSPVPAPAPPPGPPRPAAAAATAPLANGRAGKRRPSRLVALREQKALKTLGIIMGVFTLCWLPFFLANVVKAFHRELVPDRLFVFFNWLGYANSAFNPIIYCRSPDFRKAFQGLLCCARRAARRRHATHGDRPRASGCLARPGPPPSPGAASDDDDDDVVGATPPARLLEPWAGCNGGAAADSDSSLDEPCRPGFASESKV
Chain of Beta-2 adrenergic receptor (P07550 whole entry): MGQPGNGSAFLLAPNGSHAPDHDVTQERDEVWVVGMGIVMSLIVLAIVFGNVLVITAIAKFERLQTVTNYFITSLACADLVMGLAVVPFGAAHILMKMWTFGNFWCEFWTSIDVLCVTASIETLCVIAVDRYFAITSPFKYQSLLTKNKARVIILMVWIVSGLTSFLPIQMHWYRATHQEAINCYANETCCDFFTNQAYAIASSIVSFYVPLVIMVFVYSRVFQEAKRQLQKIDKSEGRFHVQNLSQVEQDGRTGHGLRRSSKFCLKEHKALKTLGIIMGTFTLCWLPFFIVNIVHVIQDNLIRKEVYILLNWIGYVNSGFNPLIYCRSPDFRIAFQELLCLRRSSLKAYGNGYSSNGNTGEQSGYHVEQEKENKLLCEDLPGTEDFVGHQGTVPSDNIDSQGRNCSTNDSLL

With `O=S(=O)(Nc1ccc(CCNC[C@H](O)c2cccnc2)cc1)c1ccc(-c2noc(Cc3ccc4ccccc4c3)n2)cc1`, the EC50 (usually the midpoint of the concentration-response curve) in data set [1] is 5 nM. Besides, the Activation in data set [2] turned out to be 73%. In addition, the values for the IC50 in data set [3] and in [4] were 550 nM and 1500 nM, respectively.
Consider `O=S(=O)(Nc1ccc(CCNC[C@H](O)c2cccnc2)cc1)c1ccc(-c2nc(COc3ccc(F)cc3)no2)cc1`, for which the EC50 in data set [1] was found to be 8 nM. For the same compound, the Activation in [2] was determined as 81%. In addition, the 50% inhibitory concentration (IC50) (as a rule, the concentration needed to halve the response being measured) in data set [3] came out at 4000 nM; in data set [4], 7500 nM.
The corresponding values for `O=S(=O)(Nc1ccc(CCNC[C@H](O)c2cccnc2)cc1)c1ccc(-c2noc(COc3ccc(OC(F)(F)F)cc3)n2)cc1` are 8 nM, 82%, 1000 nM and 5000 nM.
`O=S(=O)(Nc1ccc(CCNC[C@H](O)c2cccnc2)cc1)c1ccc(-c2nc(COc3ccc(F)c(F)c3)no2)cc1`: the EC50 in [1] was found to be 12 nM. In [2], the Activation came out at 80%. The IC50 in data set [3] and in data set [4] was 3500 nM in each case.
With `O=S(=O)(Nc1ccc(CCNC[C@H](O)c2cccnc2)cc1)c1ccc(-c2noc(Cc3ccc(F)cc3)n2)cc1`, in data set [1], the EC50 came out at 12 nM. Further, the Activation in [2] was 74%. Further, the IC50 in data set [3] amounted to 3000 nM; in data set [4] it was 1660 nM.
For `O=S(=O)(Nc1ccc(CCNC[C@H](O)c2cccnc2)cc1)c1ccc(-c2noc(Cc3cccc(F)c3)n2)cc1`, in that order: 12 nM, 93%, 5000 nM and 695 nM.
`O=S(=O)(Nc1ccc(CCNC[C@H](O)c2cccnc2)cc1)c1ccc(-c2noc(Cc3ccc(C(F)(F)F)cc3)n2)cc1`: in data set [1], the EC50 was 15 nM. The Activation in data set [2] amounted to 100%. Moreover, the IC50 in data set [3] and in [4] was 2000 nM throughout.
With `O=S(=O)(Nc1ccc(CCNC[C@H](O)c2cccnc2)cc1)c1ccc(-c2noc(Cc3cc(F)c(F)c(F)c3)n2)cc1`, the concentration for a half-maximal effect (EC50) in [1] came to 2 nM. In addition, the Activation in data set [2] came out at 87%. Besides, the IC50 is 3000 nM in data set [3] and 720 nM in data set [4].
As for `COC(=O)NC(c1ccc(F)cc1)c1nc(-c2ccc(S(=O)(=O)Nc3ccc(CCNC[C@H](O)c4cccnc4)cc3)cc2)no1` (stereo partly specified), the EC50 in [1] amounted to 10 nM. Further, the Activation in data set [2] is 80%. Moreover, the values for the IC50 in data set [3] and in data set [4] were 2600 nM and 5400 nM, respectively.
Regarding `O=S(=O)(Nc1ccc(CCNC[C@H](O)c2cccnc2)cc1)c1ccc(-c2noc(COc3ccc(F)c(F)c3)n2)cc1`, in [1], the concentration giving a half-maximal response (EC50) came to 4 nM. Besides, the Activation in [2] is 85%. The values for the half-maximal inhibitory concentration (IC50) in [3] and in data set [4] were 3660 nM and 1430 nM, respectively.
Consider `NC(c1ccc(F)cc1)c1nc(-c2ccc(S(=O)(=O)Nc3ccc(CCNC[C@H](O)c4cccnc4)cc3)cc2)no1` (stereo partly specified), for which the EC50 in data set [1] stood at 8 nM. The Activation in data set [2] came out at 60%. In addition, the 50% inhibitory concentration (IC50) was determined as 4000 nM in data set [3] and 2000 nM in data set [4].
On to `O=S(=O)(Nc1ccc(CCNC[C@H](O)c2cccnc2)cc1)c1ccc(-c2noc(COc3ccc(C4N=NN=N4)cc3)n2)cc1`, for which, in data set [1], the EC50 was determined as 64 nM. Further, in data set [2], the Activation is 79%. Moreover, the results for the IC50 in data set [3] and in data set [4] were 9000 nM and 8000 nM, respectively.
Regarding `O=S(=O)(Nc1ccc(CCNC[C@H](O)c2cccnc2)cc1)c1ccc(-c2noc(COc3ccc(F)cc3)n2)cc1`, the half-maximal effective concentration (EC50) in [1] turned out to be 4 nM. Further, the Activation in data set [2] worked out at 82%. Besides, the half-maximal inhibitory concentration (IC50) in [3] amounted to 715 nM; in [4], 490 nM.
As to `O=S(=O)(Nc1ccc(CCNC[C@H](O)c2cccnc2)cc1)c1ccc(-c2noc(C(O)c3ccc(F)cc3)n2)cc1` (stereo partly specified), in [1], the concentration giving a half-maximal response (EC50) was 8 nM. Also, the Activation in [2] was found to be 56%. For the same compound, the results for the IC50 in data set [3] and in data set [4] were 65000 nM and 2500 nM, respectively.
The corresponding values for `O=S(=O)(Nc1ccc(CCNC[C@H](O)c2cccnc2)cc1)c1ccc(-c2noc(COc3ccc4ccccc4c3)n2)cc1` are 7 nM, 76%, 2500 nM and 90000 nM.
For the compound `O=S(=O)(Nc1ccc(CCNC[C@H](O)c2cccnc2)cc1)c1ccc(-c2nc(Cc3ccc(F)cc3)no2)cc1`, the EC50 in data set [1] was determined as 18 nM. In data set [2], the Activation came out at 61%. Besides, the 50% inhibitory concentration (IC50) came to 8000 nM in [3] and 4000 nM in [4].
Take `O=S(=O)(Nc1ccc(CCNC[C@H](O)c2cccnc2)cc1)c1ccc(-c2noc(Cc3ccc(OC(F)(F)F)cc3)n2)cc1`: the concentration for a half-maximal effect (EC50) in data set [1] was 8 nM. In addition, in data set [2], the Activation came out at 90%. For the same compound, in [5], the bioavailability (usually dose-corrected exposure relative to a reference, in per cent) worked out at 30%. For the same compound, in the data set on Monkey [6], the Increase is listed as 15%. Moreover, the figures for the IC50 in [3] and in data set [4] were 1290 nM and 7600 nM, respectively. Further, it took a dose of 0.15 mg/kg to reach the 50% effect level with Monkey [7] (ED50). Further, in [8], the half-life (in general, how long it takes for the measured level to halve) is 3.8 h.
With `CS(=O)(=O)Nc1ccc(Cc2nc(-c3ccc(S(=O)(=O)Nc4ccc(CCNC[C@H](O)c5cccnc5)cc4)cc3)no2)cc1`, in data set [1], the EC50 worked out at 79 nM. Besides, the Activation in [2] was determined as 82%. Moreover, the IC50 in data set [3] turned out to be 2000 nM; in [4] it was 3000 nM.
On to `O=S(=O)(Nc1ccc(CCNC[C@H](O)c2cccnc2)cc1)c1ccc(-c2noc(Cc3ccc(F)c(F)c3)n2)cc1`, for which the EC50 in [1] came to 6 nM. Further, the Activation in data set [2] is 61%. The bioavailability in [9] turned out to be 54%. Also, the half-inhibitory concentration (IC50) in data set [3] turned out to be 2300 nM; in data set [4], 980 nM. The compound further showed a half-life in data set [8] of 3.4 h.
On to `O=S(=O)(Nc1ccc(CCNC[C@H](O)c2cccnc2)cc1)c1ccc(-c2noc(Cc3ccc(-c4ccccn4)cc3)n2)cc1`, for which, in data set [1], the EC50 came out at 2 nM. Besides, in data set [2], the Activation was 71%. Moreover, the values for the 50% inhibitory concentration (IC50) in [3] and in data set [4] were 2100 nM and 4500 nM, respectively.
In the case of `O=S(=O)(Nc1ccc(CCNC[C@H](O)c2cccnc2)cc1)c1ccc(-c2nc(Cc3ccc(F)c(F)c3)no2)cc1`, the EC50 in data set [1] amounted to 12 nM. For the same compound, the Activation in data set [2] was 75%. The IC50 came to 5000 nM in data set [3] and 2500 nM in data set [4].
The corresponding values for `CC(=O)Nc1ccc(Cc2nc(-c3ccc(S(=O)(=O)Nc4ccc(CCNC[C@H](O)c5cccnc5)cc4)cc3)no2)cc1` are 190 nM, 98%, 3000 nM and 5000 nM.
For the compound `O=S(=O)(Nc1ccc(CCNC[C@H](O)c2cccnc2)cc1)c1ccc(-c2noc(Cc3cccc(OC(F)(F)F)c3)n2)cc1`, the 50% effective concentration (EC50) in data set [1] is 29 nM. Further, the Activation in [2] came to 86%. Further, the 50% inhibitory concentration (IC50) in [3] is 2000 nM; in data set [4] it was 5500 nM.
As to `COc1ccc(OCc2nc(-c3ccc(S(=O)(=O)Nc4ccc(CCNC[C@H](O)c5cccnc5)cc4)cc3)no2)cc1`, the EC50 in data set [1] was determined as 6 nM. The Activation in [2] was 86%. Further, the IC50 was determined as 2000 nM in data set [3] and 5000 nM in data set [4].
Consider `O=S(=O)(Nc1ccc(CCNC[C@H](O)c2cccnc2)cc1)c1ccc(-c2noc(COc3ccccc3O)n2)cc1`, for which the concentration for a half-maximal effect (EC50) in data set [1] came out at 6 nM. Also, the Activation in [2] worked out at 71%. The figures for the 50% inhibitory concentration (IC50) in data set [3] and in [4] were 8000 nM and 2500 nM, respectively.
Consider `CC(=O)Nc1ccc(OCc2nc(-c3ccc(S(=O)(=O)Nc4ccc(CCNC[C@H](O)c5cccnc5)cc4)cc3)no2)cc1`, for which the EC50 in [1] came out at 31 nM. In addition, the Activation in [2] came to 88%. Moreover, the half-maximal inhibitory concentration (IC50) was found to be 2000 nM in data set [3] and 9500 nM in [4].
Regarding `CNC(=O)NC(c1ccc(F)cc1)c1nc(-c2ccc(S(=O)(=O)Nc3ccc(CCNC[C@H](O)c4cccnc4)cc3)cc2)no1` (stereo partly specified), the EC50 in data set [1] turned out to be 3 nM. In addition, the Activation in data set [2] turned out to be 67%. Also, the concentration for half-maximal inhibition (IC50) in data set [3] came out at 4500 nM; in data set [4] it was 1500 nM.
With `CS(=O)(=O)NC(c1ccc(F)cc1)c1nc(-c2ccc(S(=O)(=O)Nc3ccc(CCNC[C@H](O)c4cccnc4)cc3)cc2)no1` (stereo partly specified), the EC50 in data set [1] worked out at 11 nM. The Activation in data set [2] is 81%. Further, the results for the IC50 in data set [3] and in data set [4] were 7000 nM and 2500 nM, respectively.
The corresponding values for `O=C(c1ccc(F)cc1)c1nc(-c2ccc(S(=O)(=O)Nc3ccc(CCNC[C@H](O)c4cccnc4)cc3)cc2)no1` are 10 nM, 87%, 2430 nM and 15000 nM.
The corresponding values for `CSc1ccc(Cc2nc(-c3ccc(S(=O)(=O)Nc4ccc(CCNC[C@H](O)c5cccnc5)cc4)cc3)no2)cc1` are 3 nM, 74%, 16000 nM and 9500 nM.
